Reference: US7981903B2, “2-[2-{phenylamino}-1H-pyrrolo[2,3-D]pyrimidin-4-yl)amino] benzamide derivatives as IGF-1R inhibitors for the treatment of cancer” (GlaxoSmithKline LLC, priority 2007, dated 2011)

Legend:
human IGF1R (hIGF1R) = biological target: T1, human IGF1R (hIGF1R) (Homo sapiens, UniProt P08069); experiment: TR-FRET kinase assay of purified hIGF1R; assay type: biochemical; settings: activated hIGF1R 0.5 nM, 10 μM ATP, values given as pIC50 category, read-out: IGF-1R pIC50 (converted)
T1 construct: containing amino acid residues 957-1367 of human IGF1R; made in house; host or cells: Sf9 cells (baculovirus)

[1] = biological target: T2, NIH-3T3 cells overexpressing human IGF-1R (Homo sapiens, UniProt P08069); experiment: IGF-1R cellular autophosphorylation (DELFIA); assay type: cell-based
T2 construct: expressed in transfected cells; host or cells: NIH-3T3 (mouse fibroblasts)
How it was run: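 Receptor autophosphorylation measured by DELFIA, capturing IGF-1R or IRβ and detecting with europium anti-pTyr, reported as percent of IGF-1- or insulin-stimulated signal. Compounds (30 uM to 1.5 nM) added 2 h before ligand, then 15 min stimulation (IGF-1 30 ng/ml or insulin 3 ug/ml).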

human IR (hIR) = biological target: T3, human IR (hIR) (Homo sapiens, UniProt P06213); experiment: TR-FRET kinase assay of purified hIR; assay type: biochemical; settings: activated hIR 0.5 nM, 10 μM ATP, values given as pIC50 category
T3 construct: containing amino acid residues 979-1382 of human IR; made in house; host or cells: Sf9 cells (baculovirus), same process as hIGF1R
T3 sequence (P06213 979-1382): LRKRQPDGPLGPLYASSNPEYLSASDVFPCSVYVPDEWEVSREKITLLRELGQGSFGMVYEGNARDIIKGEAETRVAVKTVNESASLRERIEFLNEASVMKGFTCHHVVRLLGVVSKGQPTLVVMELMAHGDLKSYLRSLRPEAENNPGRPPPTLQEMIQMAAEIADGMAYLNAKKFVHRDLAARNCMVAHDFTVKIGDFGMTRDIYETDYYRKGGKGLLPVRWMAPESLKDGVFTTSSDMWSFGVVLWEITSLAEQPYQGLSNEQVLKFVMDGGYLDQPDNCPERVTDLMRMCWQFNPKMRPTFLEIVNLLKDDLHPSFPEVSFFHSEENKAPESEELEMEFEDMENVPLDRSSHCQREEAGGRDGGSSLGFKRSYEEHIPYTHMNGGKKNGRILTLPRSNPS

T1 sequence (P08069 957-1367): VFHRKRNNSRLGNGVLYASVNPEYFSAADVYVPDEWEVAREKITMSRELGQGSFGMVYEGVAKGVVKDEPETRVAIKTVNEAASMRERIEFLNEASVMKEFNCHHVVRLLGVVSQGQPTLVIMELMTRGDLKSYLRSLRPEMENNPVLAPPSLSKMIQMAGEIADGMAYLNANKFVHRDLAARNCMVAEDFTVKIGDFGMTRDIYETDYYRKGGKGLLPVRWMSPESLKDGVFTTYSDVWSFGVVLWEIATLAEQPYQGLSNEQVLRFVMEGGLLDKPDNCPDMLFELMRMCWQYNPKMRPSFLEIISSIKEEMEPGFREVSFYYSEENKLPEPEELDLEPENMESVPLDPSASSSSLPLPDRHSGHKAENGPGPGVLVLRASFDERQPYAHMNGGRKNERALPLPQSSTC
T2 sequence (P08069 31-1367): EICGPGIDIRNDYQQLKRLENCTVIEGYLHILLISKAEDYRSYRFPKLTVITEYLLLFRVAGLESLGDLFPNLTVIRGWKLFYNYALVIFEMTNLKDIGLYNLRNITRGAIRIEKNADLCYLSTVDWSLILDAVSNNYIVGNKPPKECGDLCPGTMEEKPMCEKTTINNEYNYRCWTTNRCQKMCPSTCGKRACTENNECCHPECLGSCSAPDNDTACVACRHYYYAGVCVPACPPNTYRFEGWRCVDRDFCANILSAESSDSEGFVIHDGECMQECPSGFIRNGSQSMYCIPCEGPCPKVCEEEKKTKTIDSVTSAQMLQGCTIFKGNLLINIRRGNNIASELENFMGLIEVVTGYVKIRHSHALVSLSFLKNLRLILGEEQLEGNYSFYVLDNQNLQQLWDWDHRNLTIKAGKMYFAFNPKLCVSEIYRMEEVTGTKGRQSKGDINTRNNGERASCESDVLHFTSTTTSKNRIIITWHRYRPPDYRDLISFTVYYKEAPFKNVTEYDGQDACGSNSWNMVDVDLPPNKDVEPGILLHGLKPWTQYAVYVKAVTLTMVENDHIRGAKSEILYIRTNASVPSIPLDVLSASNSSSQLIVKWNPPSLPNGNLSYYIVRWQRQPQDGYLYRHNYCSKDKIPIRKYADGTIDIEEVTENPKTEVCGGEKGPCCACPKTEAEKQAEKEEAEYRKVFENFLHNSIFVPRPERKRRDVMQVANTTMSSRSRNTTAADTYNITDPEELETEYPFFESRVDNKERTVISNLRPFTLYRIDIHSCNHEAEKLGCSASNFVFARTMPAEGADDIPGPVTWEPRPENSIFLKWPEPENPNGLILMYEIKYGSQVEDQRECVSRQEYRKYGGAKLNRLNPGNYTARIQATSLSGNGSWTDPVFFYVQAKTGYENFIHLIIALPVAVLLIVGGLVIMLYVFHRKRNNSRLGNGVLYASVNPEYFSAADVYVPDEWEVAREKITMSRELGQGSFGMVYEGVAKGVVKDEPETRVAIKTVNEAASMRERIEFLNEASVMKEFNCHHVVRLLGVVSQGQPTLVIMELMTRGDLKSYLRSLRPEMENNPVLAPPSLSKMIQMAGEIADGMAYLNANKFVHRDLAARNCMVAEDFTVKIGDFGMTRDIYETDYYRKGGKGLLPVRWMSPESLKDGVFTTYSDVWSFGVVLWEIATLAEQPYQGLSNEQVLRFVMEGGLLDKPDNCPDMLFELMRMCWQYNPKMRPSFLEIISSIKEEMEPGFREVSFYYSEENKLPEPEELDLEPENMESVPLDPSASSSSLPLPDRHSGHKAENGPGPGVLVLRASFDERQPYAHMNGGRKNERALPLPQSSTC

Compound | IC50 (human IGF1R (hIGF1R)) [nM] | IC50 [1] [nM] | IC50 (human IR (hIR)) [nM]
COc1cc2c(cc1Nc1nc(Nc3cccc(F)c3C(N)=O)c3cc[nH]c3n1)N(C(=O)[C@@H]1CCCN1C)CC2 [Example 147, 2-fluoro-6-[(2-{[5-(methyloxy)-1-(1-methyl-L-prolyl)-2,3-dihydro-1H-indol-6-yl]amino}-1H-pyrrolo[2,3-d]pyrimidin-4-yl)amino]benzamide] | 5.01 to 200 | 100 to 500 | 1.26 to 3.98
CNC(=O)c1c(F)cccc1Nc1nc(Nc2cc(N(C)C(=O)CN(C)C)ccc2OC)nc2[nH]ccc12 [Example 242, 2-[(2-{[5-[(N,N-dimethylglycyl)(methyl)amino]-2-(methyloxy)phenyl]amino}-1H-pyrrolo[2,3-d]pyrimidin-4-yl)amino]-6-fluoro-N-methylbenzamide] | 5.01 to 200 | 100 to 500 | 5.01 to 158
COc1cc2c(cc1Nc1nc(Nc3cccc(F)c3C(N)=O)c3cc[nH]c3n1)N(CCN(C)C)CC2 [Example 117, 2-[(2-{[1-[2-(dimethylamino)ethyl]-5-(methyloxy)-2,3-dihydro-1H-indol-6-yl]amino}-1H-pyrrolo[2,3-d]pyrimidin-4-yl)amino]-6-fluorobenzamide] | 5.01 to 200 | > 500 | 5.01 to 158
CCCN1CCC(N2CCc3cc(OC)c(Nc4nc(Nc5cccc(F)c5C(N)=O)c5cc[nH]c5n4)cc3C2)CC1 [Example 122, 2-fluoro-6-[(2-{[6-(methyloxy)-2-(1-propyl-4-piperidinyl)-1,2,3,4-tetrahydro-7-isoquinolinyl]amino}-1H-pyrrolo[2,3-d]pyrimidin-4-yl)amino]benzamide] | 5.01 to 200 | 100 to 500 | 1.26 to 3.98
CNC(=O)c1c(F)cccc1Nc1nc(Nc2cc3c(cc2OC)CCN3C(=O)CN(C)C)nc2[nH]cc(C)c12 [Example 258, 2-[(2-{[1-(N,N-dimethylglycyl)-5-(methyloxy)-2,3-dihydro-1H-indol-6-yl]amino}-5-methyl-1H-pyrrolo[2,3-d]pyrimidin-4-yl)amino]-6-fluoro-N-methylbenzamide] | 0.251 to 1 | 100 to 500 | 0.251 to 1
COc1cc2c(cc1Nc1nc(Nc3cccc(F)c3C(N)=O)c3cc[nH]c3n1)N(C(=O)CCN(C)C)CCC2 [Example 214, 2-[(2-{[1-(N,N-dimethyl-β-alanyl)-6-(methyloxy)-1,2,3,4-tetrahydro-7-quinolinyl]amino}-1H-pyrrolo[2,3-d]pyrimidin-4-yl)amino]-6-fluorobenzamide] | 5.01 to 200 | 100 to 500 | 5.01 to 158
CN(C)CC(=O)Nc1ccc(OC(F)(F)F)c(Nc2nc(Nc3ccccc3C(N)=O)c3cc[nH]c3n2)c1 [Example 16, 2-{[2-({5-[(N,N-dimethylglycyl)amino]-2-[(trifluoromethyl)oxy]phenyl}amino)-1H-pyrrolo[2,3-d]pyrimidin-4-yl]amino}benzamide] | 0.251 to 1 | 100 to 500 | 0.251 to 1
COc1cc2c(cc1Nc1nc(Nc3cc(F)cc(F)c3C(N)=O)c3cc[nH]c3n1)N(C(=O)CN1CCCC1)CCC2 [Example 219, 2,4-difluoro-6-[(2-{[6-(methyloxy)-1-(1-pyrrolidinylacetyl)-1,2,3,4-tetrahydro-7-quinolinyl]amino}-1H-pyrrolo[2,3-d]pyrimidin-4-yl)amino]benzamide] | 0.251 to 1 | < 100 | 0.251 to 1
COc1cc2c(cc1Nc1nc(Nc3cccc(F)c3C(N)=O)c3cc[nH]c3n1)N(C(=O)CN1CCC1)CC2 [Example 143, 2-[(2-{[1-(1-azetidinylacetyl)-5-(methyloxy)-2,3-dihydro-1H-indol-6-yl]amino}-1H-pyrrolo[2,3-d]pyrimidin-4-yl)amino]-6-fluorobenzamide] | 0.251 to 1 | 100 to 500 | 0.251 to 1
CCCNC(=O)c1c(F)cc(F)cc1Nc1nc(Nc2cc3c(cc2OC)CCN3C(=O)CN(C)C)nc2[nH]ccc12 [Example 152, 2-[(2-{[1-(N,N-dimethylglycyl)-5-(methyloxy)-2,3-dihydro-1H-indol-6-yl]amino}-1H-pyrrolo[2,3-d]pyrimidin-4-yl)amino]-4,6-difluoro-N-propylbenzamide] | 0.251 to 1 | 100 to 500 | 1.26 to 3.98

The remaining lines, values ahead:

IC50 (human IGF1R (hIGF1R)) [nM] | IC50 [1] [nM] | IC50 (human IR (hIR)) [nM] | Compound
5.01 to 200 | > 500 | 5.01 to 158 | COc1cc2c(cc1Nc1nc(Nc3cccc(F)c3C(N)=O)c3cc[nH]c3n1)CN(C(=O)CCN(C)C)CC2 [Example 230, 2-[(2-{[2-(N,N-dimethyl-β-alanyl)-6-(methyloxy)-1,2,3,4-tetrahydro-7-isoquinolinyl]amino}-1H-pyrrolo[2,3-d]pyrimidin-4-yl)amino]-6-fluorobenzamide]
5.01 to 200 | < 100 | 1.26 to 3.98 | CCCN(CCC)[C@@H](C)C(=O)N1CCc2cc(OC)c(Nc3nc(Nc4cccc(F)c4C(N)=O)c4cc[nH]c4n3)cc21 [Example 192, 2-[(2-{[1-(N,N-dipropyl-L-alanyl)-5-(methyloxy)-2,3-dihydro-1H-indol-6-yl]amino}-1H-pyrrolo[2,3-d]pyrimidin-4-yl)amino]-6-fluorobenzamide]
0.251 to 1 | < 100 | 0.251 to 1 | COc1cc2c(cc1Nc1nc(Nc3cc(F)cc(F)c3C(N)=O)c3cc[nH]c3n1)N(C(=O)CN(C)C)CC2 [Example 189, 2-[(2-{[1-(N,N-dimethylglycyl)-5-(methyloxy)-2,3-dihydro-1H-indol-6-yl]amino}-1H-pyrrolo[2,3-d]pyrimidin-4-yl)amino]-4,6-difluorobenzamide]
5.01 to 200 | > 500 | 5.01 to 158 | CNC(=O)c1c(F)cccc1Nc1nc(Nc2cc3c(cc2OC)CCN3C(C)=O)nc2[nH]ccc12 [Example 135, 2-[(2-{[1-acetyl-5-(methyloxy)-2,3-dihydro-1H-indol-6-yl]amino}-1H-pyrrolo[2,3-d]pyrimidin-4-yl)amino]-6-fluoro-N-methylbenzamide]
0.251 to 1 | < 100 | 0.251 to 1 | COc1cc2c(cc1Nc1nc(Nc3cccc4c3C(=O)NC4)c3cc[nH]c3n1)N(C(=O)CN(C)C)CC2 [Example 200, 7-[(2-{[1-(N,N-dimethylglycyl)-5-(methyloxy)-2,3-dihydro-1H-indol-6-yl]amino}-1H-pyrrolo[2,3-d]pyrimidin-4-yl)amino]-2,3-dihydro-1H-isoindol-1-one]
0.251 to 1 | < 100 | 0.251 to 1 | COc1cc(N2CCN(C(C)C)CC2)ccc1Nc1nc(Nc2cc(F)cc(F)c2C(N)=O)c2cc[nH]c2n1 [Example 89, 2,4-difluoro-6-[(2-{[4-[4-(1-methylethyl)-1-piperazinyl]-2-(methyloxy)phenyl]amino}-1H-pyrrolo[2,3-d]pyrimidin-4-yl)amino]benzamide]
5.01 to 200 | > 500 | 5.01 to 158 | COc1cc2c(cc1Nc1nc(Nc3cccc(F)c3C(N)=O)c3cc[nH]c3n1)N(C(=O)CN(C)OC)CC2 [Example 144, 2-fluoro-6-[(2-{[1-[N-methyl-N-(methyloxy)glycyl]-5-(methyloxy)-2,3-dihydro-1H-indol-6-yl]amino}-1H-pyrrolo[2,3-d]pyrimidin-4-yl)amino]benzamide]
0.251 to 1 | 100 to 500 | 0.251 to 1 | COc1ccc(OC[C@@H](O)CN2CCCC2)cc1Nc1nc(Nc2cc(F)c(F)cc2C(N)=O)c2cc[nH]c2n1 [Example 107, 4,5-difluoro-2-[(2-{[5-{[(2S)-2-hydroxy-3-(1-pyrrolidinyl)propyl]oxy}-2-(methyloxy)phenyl]amino}-1H-pyrrolo[2,3-d]pyrimidin-4-yl)amino]benzamide]
